Data set [1] is described as follows: Optical properties (absorbance, fluorescence emission, quantum yield). The data set is classed as physicochemical.
Data set [2] has as its system sentinel (popliteal) lymph node. As to the kind of experiment: Sentinel lymph node fluorescence imaging (IVIS) and histology in mouse. Type of data set: in vivo. Here is the method:
FIGS. 3A-F: Sentinel lymph node imaging using [^18F]-6F-Cur-BF2 according to the working examples. […] Distal lymph nodes (lumbar, iliac lymph nodes^30) are not observed. […] A 200 μCi dose of [^18F]-6F-Cur-BF2 and Magnevist (MRI contrast agent) were injected into the right rear paw of […]. The injection site (bottom arrow) and sentinel lymph node (popliteal, upper arrows) are visible at 5 min. FIGS. 3D-3F show popliteal (sentinel) lymph node imaging 2 hours post injection into the back paw with a Pre-Clinical IVIS. Optical/Computed Tomography In Vivo Imaging System (Excitation filter centered at 430 nm and emission filter centered at 520 nm. Exposure time=1 s). […] White arrows in FIGS. 3D-3F indicate the lymph nodes.
FIG. 5 provides the histology of the collected lymph node from the mouse in FIG. 4A. The mouse lymph node was collected at 2 hours post injection into the right, rear footpad. The collected lymph node was frozen with OCT Gel and cut with a thickness of […]. The slice was, imaged with fluorescence microscope at the channel of 6F-Cur-BF2.
Applicant attempted sentinel lymph node imaging with [^18F]-6FCur-BF2 by fluorescence with 430 nm excitation and 520 nm emission filters. […] The collected lymph node is confirmed in histology.

A short description of data set [3]: 19F NMR solvolytic stability of difluoro-dioxaborinins in water/DMSO. The data set is classed as physicochemical. Particulars: 5.55 M H2O. Here is the method: Radioactive TLC and […]/^19F NMR studies were used to determine the solvolytic stability of difluoro-dioxaborinins.
Some difluoro-dioxaborinins are insoluble in water; therefore, solvolytic studies on these compounds were determined in 10% H2O/90% DMSO (5.55 M H2O, deionized). To relate the effect of water concentration to solvolysis, solvolytic studies on all water-soluble difluoro-dioxaborinins (DK-1, DK-2, DK-3, DK-6 and DK-15) were performed twice: once in 10% H2O/90% DMSO (5.55 M H2O) (FIG. 2A), and again in 90% H2O/10% DMSO (50 M H2O) (FIG. 2B). Studies performed in 50 M H2O reflect physiologically appropriate conditions, and allow comparison to literature aryl/alkyl trifluoroborate and dipyrromethene solvolytic stability measurements.^11, 14 Characterization in solutions with reduced water content, 5.55 M H2O, allows comparison of solvolytic rate constants to those of less-soluble difluoro-dioxaborinins. Difluorodioxaborinins solvolysis is not observed in pure (100%) DMSO.
The coefficient of determination (R^2) in all ^19F NMR solvolysis data closely follows single, 2 parameter exponential decay regression (f=a*exp(−k*x), R2 >0.99 in 88% of experiments).

SMILES strings stand for the structures.

In the case of `COc1cc(/C=C/C2=CC(/C=C/c3ccc(OC(=O)c4c(F)cc(F)cc4F)c(OC)c3)=[O+][B-](F)(F)O2)ccc1OC(=O)c1c(F)cc(F)cc1F` [6F-Cur-BF2], in data set [1], the Abs was found to be 430 nm, the Em is 512 nm, the “Extinction Coefficient” value is 50,800 cm^−1M^−1 and the “Stokes Shift” value amounted to 82 nm. In addition, the Quantum yield in data set [1] (Methanol) was 3.0%. Further, in data set [2] (mouse lymph node collected 2 hours post injection), the “fluorescence in collected lymph node (histology)” value is given as “observed in the lymph node”. Further, in data set [2] (mouse, 430 nm excitation, 520 nm emission filters, 2 hours post injection), the “sentinel node visualization by fluorescence through the skin” value is listed as “the sentinel node is difficult to visualize through the skin”. In addition, in data set [3], the “fold more rapid solvolysis than Cur-BF2” value is listed as 33 and the “fold slower solvolysis (more stable) than DK-1” value was determined as 1.6.
